Laboratory results taken from ChEMBL document CHEMBL1201862, “PubChem BioAssay data set” (2004).
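How tested: cells in 96-well plates exposed to compound for 48 hours at five concentrations. GI50: concentration for 50% inhibition of growth.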 Activity calls are given as the source filed them. Rule as the data show it: active = GI50 up to about 1.1 µM and inactive = higher.

Legend:
Assay in all cases: DTP human tumour cell line panel, 48 h
OVCAR-8 = test system: OVCAR-8
CAKI-1 = test system: CAKI-1
A498 = test system: A498
UO-31 = test system: UO-31
HOP-62 = test system: HOP-62
KM12 = test system: KM12
MDA-MB-231 = test system: MDA-MB-231
LOX IMVI = test system: LOX IMVI
ACHN = test system: ACHN
IGROV-1 = test system: IGROV-1
HOP-92 = test system: HOP-92
HCC 2998 = test system: HCC 2998
SK-OV-3 = test system: SK-OV-3
NCI/ADR-RES = test system: NCI/ADR-RES
SF-295 = test system: SF-295
OVCAR-3 = test system: OVCAR-3
HL-60 = test system: HL-60
SR = test system: SR
SK-MEL-28 = test system: SK-MEL-28
MDA-MB-435 = test system: MDA-MB-435

In the case of `COc1cc(C(=O)c2cocc2C(=O)c2ccc3c(c2)OCO3)cc(OC)c1OC`, the GI50 (OVCAR-8) is reported as 1.35 µM (inactive), the GI50 (CAKI-1) is reported as 0.378 µM (active) and the GI50 (A498) is reported as 4.05 µM (inactive). The GI50 (UO-31) was 1.58 µM (inactive), the GI50 (HOP-62) was 1 µM (active) and the GI50 (KM12) was 0.254 µM (active). The GI50 (MDA-MB-231) was 2.65 µM (inactive), the GI50 (LOX IMVI) was 0.483 µM (active) and the GI50 (ACHN) was 0.977 µM (active). For the same molecule, the GI50 (IGROV-1) was 1.5 µM (inactive), the GI50 (HOP-92) was 2.69 µM (inactive) and the GI50 (HCC 2998) was 3.72 µM (inactive). The GI50 (SK-OV-3) was 2.49 µM (inactive), the GI50 (NCI/ADR-RES) was 0.142 µM (active) and the GI50 (SF-295) was 0.351 µM (active). The GI50 (OVCAR-3) was 0.304 µM (active), the GI50 (HL-60) was 0.0946 µM (active) and the GI50 (SR) was 0.611 µM (active). The GI50 (SK-MEL-28) was 1.46 µM (inactive) and the GI50 (MDA-MB-435) was 0.0916 µM (active).
`COC(=O)c1cc2c(n1S(=O)(=O)c1ccc(C)cc1)C(=O)C(=O)c1[nH]cc(C(=O)OCc3ccccc3)c1-2` was tested, and the GI50 (OVCAR-8) was 0.0989 µM (active), the GI50 (CAKI-1) was 0.355 µM (active) and the GI50 (A498) was 1.65 µM (inactive). The GI50 (UO-31) was 0.211 µM (active), the GI50 (HOP-62) was 0.149 µM (active) and the GI50 (KM12) was 0.231 µM (active). For the same molecule, the GI50 (MDA-MB-231) was 0.0274 µM (active), the GI50 (LOX IMVI) was 0.0553 µM (active) and the GI50 (ACHN) was 0.233 µM (active). The GI50 (IGROV-1) was 0.197 µM (active), the GI50 (HOP-92) was 0.236 µM (active) and the GI50 (HCC 2998) was 0.218 µM (active). For the same molecule, the GI50 (SK-OV-3) was 0.871 µM (active), the GI50 (NCI/ADR-RES) was 0.583 µM (active) and the GI50 (SF-295) was 0.12 µM (active). For the same molecule, the GI50 (OVCAR-3) was < 0.0141 µM (active), the GI50 (HL-60) was 0.0289 µM (active) and the GI50 (SR) was 0.0906 µM (active). The GI50 (SK-MEL-28) was 0.107 µM (active) and the GI50 (MDA-MB-435) was < 0.015 µM (active).
In the case of `CCCCCCNCCCNc1c2ccccc2nc2cccc([N+](=O)[O-])c12`, the GI50 (OVCAR-8) is reported as 0.012 µM (active), the GI50 (CAKI-1) is reported as 0.0548 µM (active) and the GI50 (A498) is reported as 0.164 µM (active). For the same molecule, the GI50 (UO-31) was 0.122 µM (active), the GI50 (HOP-62) was 0.0245 µM (active) and the GI50 (KM12) was 0.0127 µM (active). The GI50 (MDA-MB-231) was 0.0229 µM (active), the GI50 (LOX IMVI) was 0.0193 µM (active) and the GI50 (ACHN) was 0.0132 µM (active). For the same molecule, the GI50 (IGROV-1) was 0.00873 µM (active), the GI50 (HOP-92) was 0.0211 µM (active) and the GI50 (HCC 2998) was 0.00665 µM (active). For the same molecule, the GI50 (SK-OV-3) was 0.051 µM (active), the GI50 (NCI/ADR-RES) was 0.33 µM (active) and the GI50 (SF-295) was 0.0188 µM (active). For the same molecule, the GI50 (OVCAR-3) was 0.0171 µM (active), the GI50 (HL-60) was 0.0151 µM (active) and the GI50 (SR) was 0.0256 µM (active). The GI50 (SK-MEL-28) was 0.158 µM (active) and the GI50 (MDA-MB-435) was 0.0103 µM (active).
In the case of `Cn1c(-c2cccs2)cc(-c2ccccc2)c1-c1cccs1`, the GI50 (OVCAR-8) is reported as 65.2 µM (inactive), the GI50 (CAKI-1) is reported as 93.5 µM (inactive) and the GI50 (A498) is reported as > 100 µM (inactive). For the same molecule, the GI50 (UO-31) was > 100 µM (inactive), the GI50 (HOP-62) was 18.2 µM (inactive) and the GI50 (KM12) was 74 µM (inactive). For the same molecule, the GI50 (MDA-MB-231) was > 100 µM (inactive), the GI50 (LOX IMVI) was > 100 µM (inactive) and the GI50 (ACHN) was 39.9 µM (inactive). For the same molecule, the GI50 (IGROV-1) was 39.4 µM (inactive), the GI50 (HOP-92) was > 100 µM (inactive) and the GI50 (HCC 2998) was > 100 µM (inactive). For the same molecule, the GI50 (SK-OV-3) was 36.1 µM (inactive), the GI50 (NCI/ADR-RES) was > 100 µM (inactive) and the GI50 (SF-295) was 17 µM (inactive). The GI50 (OVCAR-3) was 20.4 µM (inactive), the GI50 (HL-60) was 68.7 µM (inactive) and the GI50 (SR) was 18.2 µM (inactive). For the same molecule, the GI50 (SK-MEL-28) was > 100 µM (inactive) and the GI50 (MDA-MB-435) was > 100 µM (inactive).
`CCOP(=O)(OCC)/C(C#N)=C/c1coc2cc(C)cc(C)c2c1=O` was tested, and the GI50 (OVCAR-8) was > 100 µM (inactive), the GI50 (CAKI-1) was > 100 µM (inactive) and the GI50 (A498) was > 100 µM (inactive). For the same molecule, the GI50 (UO-31) was > 100 µM (inactive), the GI50 (HOP-62) was > 100 µM (inactive) and the GI50 (KM12) was > 100 µM (inactive). For the same molecule, the GI50 (MDA-MB-231) was > 100 µM (inactive), the GI50 (LOX IMVI) was > 100 µM (inactive) and the GI50 (ACHN) was > 100 µM (inactive). The GI50 (IGROV-1) was > 100 µM (inactive), the GI50 (HOP-92) was > 100 µM (inactive) and the GI50 (HCC 2998) was > 100 µM (inactive). The GI50 (SK-OV-3) was > 100 µM (inactive), the GI50 (NCI/ADR-RES) was > 100 µM (inactive) and the GI50 (SF-295) was > 100 µM (inactive). The GI50 (OVCAR-3) was > 100 µM (inactive), the GI50 (HL-60) was > 100 µM (inactive) and the GI50 (SR) was > 100 µM (inactive). For the same molecule, the GI50 (SK-MEL-28) was > 100 µM (inactive) and the GI50 (MDA-MB-435) was > 100 µM (inactive).
In the case of `CC1(C)C/C(=N/O)c2c(nc3ccc4ccccc4c3c2-c2ccc(Cl)cc2)C1`, the GI50 (OVCAR-8) is reported as 12.5 µM (inactive), the GI50 (CAKI-1) is reported as 13.5 µM (inactive) and the GI50 (A498) is reported as 19.5 µM (inactive). The GI50 (UO-31) was 16.8 µM (inactive), the GI50 (HOP-62) was 23.2 µM (inactive) and the GI50 (KM12) was 42 µM (inactive). The GI50 (MDA-MB-231) was 11.6 µM (inactive), the GI50 (LOX IMVI) was 13.7 µM (inactive) and the GI50 (ACHN) was 6.79 µM (inactive). The GI50 (IGROV-1) was 14.9 µM (inactive), the GI50 (HOP-92) was 18.3 µM (inactive) and the GI50 (HCC 2998) was 21.6 µM (inactive). For the same molecule, the GI50 (SK-OV-3) was 15 µM (inactive), the GI50 (NCI/ADR-RES) was 17.5 µM (inactive) and the GI50 (SF-295) was 10.9 µM (inactive). The GI50 (OVCAR-3) was 12.3 µM (inactive), the GI50 (HL-60) was 9.14 µM (inactive) and the GI50 (SR) was 4.75 µM (inactive). For the same molecule, the GI50 (SK-MEL-28) was 31.3 µM (inactive) and the GI50 (MDA-MB-435) was 60.1 µM (inactive).
`Cc1ccccc1C(=O)N1CCc2c([nH]c3ccccc23)C1` was tested, and the GI50 (OVCAR-8) was 27 µM (inactive), the GI50 (CAKI-1) was 24.4 µM (inactive) and the GI50 (A498) was 21.5 µM (inactive). The GI50 (UO-31) was 31.2 µM (inactive), the GI50 (HOP-62) was 33.8 µM (inactive) and the GI50 (KM12) was 25.9 µM (inactive). For the same molecule, the GI50 (MDA-MB-231) was 12.7 µM (inactive), the GI50 (LOX IMVI) was 21.9 µM (inactive) and the GI50 (ACHN) was 34.9 µM (inactive). For the same molecule, the GI50 (IGROV-1) was 25.7 µM (inactive), the GI50 (HOP-92) was 15.1 µM (inactive) and the GI50 (HCC 2998) was 18.5 µM (inactive). For the same molecule, the GI50 (SK-OV-3) was 32.4 µM (inactive), the GI50 (NCI/ADR-RES) was 22.6 µM (inactive) and the GI50 (SF-295) was 29.1 µM (inactive). For the same molecule, the GI50 (OVCAR-3) was 27.5 µM (inactive), the GI50 (HL-60) was 17.5 µM (inactive) and the GI50 (SR) was 13.7 µM (inactive). The GI50 (SK-MEL-28) was 28.9 µM (inactive) and the GI50 (MDA-MB-435) was 14.4 µM (inactive).
